From patent US8957062B2, “Substituted cyclopropyl compounds, compositions containing such compounds and methods of treatment” (Merck Sharp & Dohme Corp., priority 2011, dated 2015)
Like-named read-outs stand apart in the source and are kept apart here.

Biological target: T1, human GPR119 (Homo sapiens, UniProt Q8TDV5)
T1 sequence (Q8TDV5 1-308 limits assumed): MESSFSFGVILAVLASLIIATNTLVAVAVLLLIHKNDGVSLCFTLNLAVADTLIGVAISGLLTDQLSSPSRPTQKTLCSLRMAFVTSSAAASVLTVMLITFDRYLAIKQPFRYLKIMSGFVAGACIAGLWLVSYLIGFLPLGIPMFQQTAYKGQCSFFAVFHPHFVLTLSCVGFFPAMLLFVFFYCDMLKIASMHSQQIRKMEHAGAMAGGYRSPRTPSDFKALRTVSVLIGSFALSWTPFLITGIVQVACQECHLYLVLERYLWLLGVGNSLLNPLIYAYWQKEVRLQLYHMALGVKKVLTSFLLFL
Test: Measurement of GPR119 signaling (cAMP assay) in cells stably transfected with human GPR119
Type: cell-based
Settings: cAMP stimulation
Experimental: Measurement of GPR119 Signaling (Cyclic AMP (cAMP) Assay)
The adenylate cyclase assay was constructed following the LANCE™ cAMP Kit (Perkin Elmer, AD0264) instructions.
The reaction was stopped by incubating with the supplied detection buffer containing the europium chelate of the Eu-SA/Biotin-cAMP tracer for 3 hours. The assay was performed in duplicate in a 384 well plate for duplicate plates and fluorescence was measured at 665 nm. Basal activity was determined using a DMSO control and maximum response was defined as cAMP stimulation produced by an internal agonist control. Standard cAMP concentrations were assayed concurrently for conversion of fluorescence signal to cAMP level. The data was analyzed using 4-parameter curve fit in Microsoft Excel.
Measurement of GPR119 Signaling (cAMP Homogenous Time Resolved Fluorescence (HTRF) Assay)
Chinese hamster ovary (CHO) cell lines stably transfected with the permissive guanine nucleotide binding protein alpha 15 (Gα15) and murine GPR119 were maintained in DMEM media containing FBS, penicillin-streptomycin, puromycin, and G418 (geneticin). […] Agonist activation of the GPR119 receptor was measured in receptor transfected cells described above, treated with compounds of this invention, using a commercial homogenous time resolved fluorescence (HTRF) kit for measurement of cAMP (CisBio, Bedford, Mass.). The assay was performed in 96-well half-volume plates (murine) or 384-well plates (human) following the manufacturers instructions. Briefly, suspended cells were incubated with a dose titration of test compound at RT for 60 min, lysed, and incubated with HTRF reagents for an additional 60 min. The plate was read using an Envision multilabel reader (Perkin Elmer) adjusted to read time resolved fluorescence and the cAMP concentrations were extrapolated from a cAMP calibration curve. […] The concentration of test compound required to stimulate a half-maximal response (EC50), and efficacy as compared to an internal agonist control, was determined from a sigmoidal 4-parameter curve fit of the resulting plot of normalized activity versus compound concentration.

[1] = table column, human GPR119, read-out: GPR119 Human EC50
[2] = stated in the example text, human GPR119, read-out: GPR119 Human EC50

EC50 [1]	SMILES	also measured
2.2 nM	CC(C)c1noc(N2CCC([C@H]3C[C@H]3CCOc3ccc(CC(=O)N4CCc5ccsc5C4)c(F)c3)CC2)n1 [Example 173]	
0.2 nM	Cc1nc(C#N)cc(OCC[C@@H]2C[C@@H]2C2CCN(C(=O)OC(C)(C)C)CC2)n1 [Example 47]	
0.55 nM	CC(C)c1noc(N2CCC([C@H]3C[C@H]3CCOc3ccc(CC(=O)N4CC(F)(F)C4)c(F)c3)CC2)n1 [Example 147]	
0.4 nM	CC(C)(C)COC(=O)N1CCC([C@H]2C[C@H]2CCOc2ccc(S(C)(=O)=O)c(F)c2)CC1 [Example 41]	
6.7 nM	CC(C)c1noc(N2CCC([C@H]3C[C@H]3CCOc3ccc(CC(=O)N(C)C)cc3)CC2)n1 [Example 137]	
2.5 nM	CCS(=O)(=O)c1ccc(OCC[C@@H]2C[C@@H]2C2CCN(C(=O)OC3(C)CC3)CC2)cc1F [Example 42]	
2.5 nM	COCc1noc(N2CCC([C@H]3C[C@H]3CCOc3cc(F)c(CC(=O)N(C)C)c(F)c3)CC2)n1 [Example 206]	
	CC(C)c1noc(N2CCC([C@H]3C[C@H]3CCOc3cc(F)c(CC(=O)N(C)C)c(F)c3)CC2)n1 [Example 111]	EC50 (read-out: GPR119 HumC EC50): 0.26 nM
3.7 nM	CC(C)c1noc(N2CCC([C@H]3C[C@H]3CCOc3ccc(CC(=O)N4CCc5cccnc5C4)c(F)c3)CC2)n1 [Example 181]	
3 nM	O=C(c1c(F)cc(OCC[C@@H]2C[C@@H]2C2CCN(c3nnc4ncccn34)CC2)cc1F)C1CC1 [Example 253]	
	CC1(COC(=O)N2CCC([C@H]3C[C@H]3CCOc3ccc(CC(=O)N4CCC4)c(F)c3)CC2)CC1 [Example 72]	EC50 (read-out: GPR119 HumC EC50): 3.6 nM
1.4 nM	CC(C)c1noc(N2CCC([C@H]3C[C@H]3CCOc3ccc(Cc4nncs4)c(F)c3)CC2)n1 [Example 257]	
	CC1(OC(=O)N2CCC([C@H]3C[C@H]3CCOc3ccc(CC(=O)N4CCC4)c(Cl)c3)CC2)CC1 [Example 69]	EC50 (read-out: GPR119 HumC EC50): 1.5 nM
	Cc1cc(-n2cnnn2)cnc1OCC[C@@H]1C[C@@H]1C1CCN(C(=O)OC2(C)CC2)CC1 [Example 30, 1-methylcyclopropyl 4-[(1R,2S)-2-(2-{[3-methyl-5-(1H-tetrazol-1 yl)pyridin-2-yl]oxy}ethyl)cyclopropyl]piperidine-1-carboxylate]	EC50 [2]: 0.7 nM
1.7 nM	CC(C)c1noc(N2CCC([C@H]3C[C@H]3CCOc3ccc(CC(=O)N4CCCCC4)c(F)c3)CC2)n1 [Example 145]	
0.4 nM	Cc1nc(C#N)cc(OCC[C@@H]2C[C@@H]2C2CCN(c3nc(C(C)C)no3)CC2)n1 [Example 118]	
1 nM	O=C(OC1CCC1)N1CCC([C@H]2C[C@H]2CCOc2ccc(-n3cnnn3)cc2)CC1 [Example 8]	
8.5 nM	COC1CN(C(=O)Cc2ccc(OCC[C@@H]3C[C@@H]3C3CCN(c4nc(C(C)C)no4)CC3)cc2)C1 [Example 135]	
5 nM	CC(C)c1noc(N2CCC([C@H]3C[C@H]3CCOc3ccc(CC(=O)N(C)C4CCCC4)c(F)c3)CC2)n1 [Example 154]	
	CCS(=O)(=O)c1ccc(OCC[C@H]2C[C@H]2C2CCN(c3nc(COC)no3)CC2)cc1F (stereo in doubt) [Example 15, 4-((1S,2R)-2-{2-[4-(ethylsulfonyl)-3-fluorophenoxy]ethyl}cyclopropyl)-1-[3-(methoxymethyl)-1,2,4-oxadiazol-5-yl]piperidine]	EC50 [2]: 8.4 nM
2.1 nM	CC(C)c1noc(N2CCC([C@H]3C[C@H]3CCOc3ccc(CC(=O)NC4CC4)c(F)c3)CC2)n1 [Example 150]	
5.8 nM	CC(C)(C)OC(=O)N1CCC([C@H]2C[C@H]2CCOc2ccc(S(C)(=O)=O)cn2)CC1 [Example 17]	
8.2 nM	CC(C)c1noc(N2CCC([C@H]3C[C@H]3CCOc3ccc(CC(=O)N4CC(C(C)(C)O)C4)c(F)c3)CC2)n1 [Example 149]	
3.1 nM	CC(C)c1noc(N2CCC([C@H]3C[C@H]3CCOc3ccc(CC(=O)N(C)Cc4cc[nH]n4)c(F)c3)CC2)n1 [Example 167]	

EC50 [1]	SMILES	also measured
16 nM	CC1(OC(=O)N2CCC([C@H]3C[C@H]3CCOc3ccc(S(=O)(=O)C4CC4)cc3)CC2)CC1 [Example 37]	
	CC(C)c1noc(N2CCC([C@H]3C[C@H]3CCOc3cc(F)c(CC(=O)N4CCOCC4)c(F)c3)CC2)n1 [Example 114]	EC50 (read-out: GPR119 HumC EC50): 0.19 nM
1.5 nM	CC(C)OC(=O)N1CCC([C@H]2C[C@H]2CCOc2ccc(-n3cnnn3)cc2)CC1 [Example 11]	
11.6 nM	CS(=O)(=O)c1ccc(OCC[C@@H]2C[C@@H]2C2CCN(c3noc(C4CCCC4)n3)CC2)nc1 [Example 242]	
7 nM	CC1CC1c1nc(N2CCC([C@H]3C[C@H]3CCOc3ccc(S(C)(=O)=O)cn3)CC2)no1 (stereo partly drawn) [Example 239]	
7.9 nM	CC(C)c1noc(N2CCC([C@H]3C[C@H]3CCOc3ccc(CC(=O)N(C)CCn4cncn4)c(F)c3)CC2)n1 [Example 168]	
11.8 nM	O=C(OCc1ccccc1)N1CCC([C@H]2C[C@H]2CCOc2ccc(-n3cnnn3)cc2)CC1 [Example 12]	
3.4 nM	COCc1noc(N2CCC([C@H]3C[C@H]3CCOc3ccc(S(C)(=O)=O)cc3)CC2)n1 [Example 221]	
46 nM	CC(C)OC(=O)N1CCC([C@H]2C[C@H]2CCOc2ccc(S(C)(=O)=O)cn2)CC1 [Example 16]	
	CC1(OC(=O)N2CCC([C@H]3C[C@H]3CCOc3ccc(-n4cnnn4)cc3)CC2)CC1 [Example 2, 1-methylcyclopropyl 4-((1R,2S)-2-(2-(4-(1H-tetrazol-1-yl)phenoxy)ethyl)cyclopropyl)piperidine-1-carboxylate]	EC50 [2]: 1 nM
5.4 nM	CC(C)(C)CC(=O)N1CCC([C@H]2C[C@H]2CCOc2ccc(S(C)(=O)=O)c(F)c2)CC1 [Example 95]	
12 nM	CC(C)(C)OC(=O)N1CCC([C@H]2C[C@H]2CCOc2cc(F)c(S(C)(=O)=O)c(F)c2)CC1 [Example 38]	
	O=C(Cc1ccc(OCC[C@@H]2C[C@@H]2C2CCN(C(=O)OCC3CCC3)CC2)cc1F)N1CCC1 [Example 73]	EC50 (read-out: GPR119 HumC EC50): 2.2 nM
0.94 nM	CC(C)c1noc(N2CCC([C@H]3C[C@H]3CCOc3ccc(CC(=O)N(C)C)c(F)c3)CC2)n1 [Example 143]	
6.5 nM	CC(C)Cc1nc(N2CCC([C@H]3C[C@H]3CCOc3ccc(S(C)(=O)=O)cn3)CC2)no1 [Example 235]	
	CC1(OC(=O)N2CCC([C@H]3C[C@H]3CCOc3ccc(CC(=O)N4CCOCC4)c(F)c3)CC2)CC1 [Example 67]	EC50 (read-out: GPR119 HumC EC50): 8.5 nM
18 nM	Cc1cc(CC(=O)N2CCC(C)CC2)cnc1OCC[C@@H]1C[C@@H]1C1CCN(c2nc(C(C)C)no2)CC1 [Example 259]	
	Cc1cc(OCC[C@@H]2C[C@@H]2C2CCN(C(=O)OC3(C)CC3)CC2)ccc1CC(=O)N1CCC1 [Example 60, 1-methylcyclopropyl-4-((1R,2S)-2-{2-[4-(2-azetidin-1-yl-2-oxoethyl)-3-methylphenoxy]ethyl}cyclopropyl)piperidine-1-carboxylate]	EC50 [2]: 5.4 nM
5.3 nM	CC(C)c1noc(N2CCC([C@H]3C[C@H]3CCOc3ccc(CC(=O)N4CC[C@@H](F)C4)cc3)CC2)n1 [Example 134]	
	Cc1cc(CC(=O)N2CC(F)C2)cnc1OCC[C@@H]1C[C@@H]1C1CCN(c2nc(C(C)C)no2)CC1 [Example 258, 5-[2-(3-fluoroazetidin-1-yl)-2-oxoethyl]-2-(2-{(1S,2R)-2-[1-(3-isopropyl-1,2,4-oxadiazol-5-yl)piperidin-4-yl]cyclopropyl}ethoxy)-3-methylpyridine]	EC50 [2]: 8 nM
14.5 nM	CCS(=O)(=O)c1ccc(OCC[C@@H]2C[C@@H]2C2CCN(C(=O)OC3(C)CC3)CC2)cc1 [Example 36]	
2.7 nM	CC(C)c1noc(N2CCC([C@H]3C[C@H]3CCOc3ccc(CC(=O)N4CC(F)(F)C4)cc3)CC2)n1 [Example 132]	
1.5 nM	CC(C)c1noc(N2CCC([C@H]3C[C@H]3CCOc3ccc(CC(=O)N(C)Cc4cncs4)c(F)c3)CC2)n1 [Example 171]	
	CC(C)(C)NC(=O)N1CCC([C@H]2C[C@H]2CCOc2ccc(-n3cnnn3)cc2)CC1 [Example 76, N-(tert-butyl)-4-((1R,2S)-2-(2-(4-(1H-tetrazol-1-yl)phenoxy)ethyl)cyclopropyl)piperidine-1-carboxamide]	EC50 [2]: 14.7 nM
